Experimental data as given in ChEMBL document CHEMBL2412997, “Determination of the binding mode and interacting amino-acids for dibasic H3 receptor antagonists” (Bioorg Med Chem, 2013).

The compounds below were run against T1, Histamine H3 receptor (Homo sapiens, UniProt Q9Y5N1) (assay: Displacement of [125I]iodoproxyfan from histamine H3 receptor (unknown origin) expressed in CHO cells).
Format: cell-based

T1 sequence (Q9Y5N1 whole entry): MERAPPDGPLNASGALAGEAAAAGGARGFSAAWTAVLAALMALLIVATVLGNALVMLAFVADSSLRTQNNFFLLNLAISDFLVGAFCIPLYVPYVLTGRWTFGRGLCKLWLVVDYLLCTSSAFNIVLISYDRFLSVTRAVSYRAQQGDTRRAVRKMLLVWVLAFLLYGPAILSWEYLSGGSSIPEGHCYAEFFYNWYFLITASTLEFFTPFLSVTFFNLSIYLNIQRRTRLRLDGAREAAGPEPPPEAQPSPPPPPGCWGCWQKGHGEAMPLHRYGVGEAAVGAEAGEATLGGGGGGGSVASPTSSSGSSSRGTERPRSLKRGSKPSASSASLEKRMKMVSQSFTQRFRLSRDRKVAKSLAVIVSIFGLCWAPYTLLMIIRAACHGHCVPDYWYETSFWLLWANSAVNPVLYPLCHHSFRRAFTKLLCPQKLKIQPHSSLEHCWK

Ki [nM] | Compound
0.9 | c1cc(OCCCN2CCCCC2)ccc1CCCc1ccc(OCCCN2CCCCC2)cc1
0.67 | C(#Cc1ccc(-c2ccc(OCCCN3CCCCC3)cc2)cc1)CN1CCCCC1
0.057 | C(=C/c1ccc(-c2ccc(OCCCN3CCCCC3)cc2)cc1)/CN1CCCCC1
0.17 | c1cc(-c2ccc(OCCCN3CCCCC3)cc2)ccc1CCCN1CCCCC1
0.53 | O=C(/C=C/c1ccc(OCCCN2CCCCC2)cc1)c1ccc(OCCCN2CCCCC2)cc1
0.51 | c1cc(OCCCN2CCCCC2)ccc1Cc1ccc(OCCCN2CCCCC2)cc1
0.045 | c1ccc(-c2ccc(OCCCN3CCCCC3)cc2)c(CN2CCCCC2)c1
0.49 | c1cc(-c2ccc(OCCN3CCCCC3)cc2)ccc1OCCCN1CCCCC1
0.655 | C(=C\c1ccc(-c2ccc(OCCCN3CCCCC3)cc2)cc1)/CN1CCCCC1
1.21 | c1cc(OCCCN2CCCCC2)ccc1CCc1ccc(OCCCN2CCCCC2)cc1
1.64 | c1cc(-c2ccc(OCCCN3CCCCC3)cc2)ccc1CN1CCCCC1
0.549 | c1cc(CN2CCCCC2)cc(-c2ccc(OCCCN3CCCCC3)cc2)c1
0.13 | c1cc(-c2ccc(OCCCN3CCCCC3)cc2)ccc1OCCCCN1CCCCC1
0.23 | CN1CCN(c2ccc(-c3ccc(OCCCN4CCCCC4)cc3)cc2)CC1
0.64 | O=C(CCc1ccc(OCCCN2CCCCC2)cc1)c1ccc(OCCCN2CCCCC2)cc1
9.31 | FC1(F)CCN(CCCOc2ccc(-c3ccc(OCCCN4CCCCC4)cc3)cc2)CC1

What follows are compounds tested against T1, Histamine H3 receptor (assay: Binding affinity to histamine H3 receptor (unknown origin)).

Ki [nM] | Compound
1000 | CCN1CCCc2c(OCCCN3CCCCC3)cccc21
61 | N#CC(C#N)=C1N(CCCCN2CCCCC2)CCN1CCCN1CCCCC1
1.2 | c1cc(-c2ccc(CCN3CCCCC3)cc2)ccc1CCN1CCCCC1
56 | N#CC(C#N)=C1N(CCCCN2CCCCC2)CCN1CCCCN1CCCCC1
0.3 | c1cc(-c2ccc(CN3CCCCC3)cc2)ccc1CN1CCCCC1
1000 | CCN1CCCc2cccc(OCCCN3CCCCC3)c21
